# Where “and” joins values, the source holds several entries; their conditions need not be identical. Identical values can stand only once. Like-named read-outs stand apart in the source and are kept apart here.
# Columns and labels:
# [1] = Encapsulation in catanionic SVs (gel filtration, then NMR or ICP-AES); type: physicochemical; settings: empty SVs incubated in 4 mM D-maltose solution for three weeks
# [2] = for Second Order Rate Constant k’: 60:40 w/w SDBS:CTAT, 1% w/w total surfactant
# Description: To assess the rate of encapsulated substrate release, dialysis was initially considered. […] The assay was to remove aliquots from SVs-encapsulated formulations at time intervals and re-purify the aliquot by size-exclusion chromatography (SEC). Vesicle fractions elute in the initial fractions while release carbohydrate is retained on the column and elutes in the later fractions. The quantity of carbohydrate released was determined by ^1H-NMR (FIG. 28).
# Using the SEC method, the initial rate of glucose release was analyzed for vesicle encapsulated glucose solutions at varying concentrations. […] Therefore, a simple model with first-order release kinetics across the vesicle membrane (Eq. 1) was used, from which the rate law (Eq. 2) can be derived, where [Sugar]in and [Sugar]out are the sugar concentrations inside and outside the vesicle, respectively.
# The release for each vesicle-encapsulated sugar preparation was monitored for at least two half-lives (monosaccharides) and at least one half-life (disaccharides and maltotriose). The release profile for each substrate was then fit to Eq. 3 by a least squares method, and the first order rate constant k1 was calculated. The reported uncertainties represent the standard deviation in the measured k1 of three separate batches of vesicle-encapsulated sugar.
# The t1/2 was calculated from each k1, and the permeability coefficient (P) was calculated using k1 and the vesicle size (from DLS experiments) according to: […]
# [3] = Vesicle radius and PDI by DLS
# Description: To measure the average size of the vesicles, 100 μL of the solution was taken and diluted to 1 mL with water and analyzed using dynamic light scattering (DLS).
# [4] = Encapsulation in catanionic SVs (gel filtration, then NMR or ICP-AES); type: physicochemical; settings: PBS 1×
# Description: Vesicles were formed in the presence of several different sugars, purified by gel filtration, and the encapsulated sugar concentration measured by NMR (Table 3).
# Table 6 summarizes the EE and drug concentration achieved with each of the chemotherapeutic agents under the standard SDBS-rich SVs formulation method.
# The gel was flushed with two column-volumes of PBS 1×. Next, 1.0 mL of crude vesicle suspension was loaded onto the column and gravity fed into the gel. 2.0 mL of PBS 1× eluent was then added to the column and the fractions discarded. 1.5 mL of PBS 1× was then added to the column and the fractions collected to yield purified opaque light blue vesicles. The column was cleaned with 2.0 mL of 0.1% Triton X-100 in water followed by two column volumes of PBS 1×.
# MDA-MB-231 = assay: Empty vesicles vs. DOX-vesicles on cell lines; type: cell-based; settings: MDA-MB-231 human breast cancer
# From the text: (§1) Empty vesicles vs. DOX-vesicles. 3 cell lines: MDA-MB-231: human breast cancer; MCF-7: human breast cancer; A549: non-small cell lung cancer.
# A549 = assay: Empty vesicles vs. DOX-vesicles on cell lines; type: cell-based; settings: Homo sapiens; A549 non-small cell lung cancer
# From the text: as §1
# [5] = cited from earlier work
# [6] = sugar vesicles, 500 mM sugar, PBS 1×, after 24 h
# [7] = 25° C., PBS 1× pH 7.4, 60:40 w/w SDBS rich vesicles, 500 mM sugar
# [8] = chemotherapeutic drugs in SDBS-rich SVs
Molecule,"Second Order Rate Constant k’ ([2]; 25° C., PBS 1×)","Vesicle PDI [3, 6]","Vesicle Radius (nm) [3, 6]",EE (%) ([4]; prepared in 500 mM sugar),"[Sugar], mM (in purified vesicles) ([4]; prepared in 500 mM sugar)",also measured
OC[C@H]1O[C@H](O[C@H]2[C@H](O)[C@@H](O)[C@H](O)O[C@@H]2CO)[C@H](O)[C@@H](O)[C@@H]1O [D-maltose],0.000333 ± 8.3e-05 M⁻¹ s⁻¹,0.13,80 nm,1.2%,4.1 ± 0.3 mM,"EE [1]: 5%; maltose trapped by vesicles [1]: 0.2 mM; Second Order Rate Constant k’ ([2]; 25° C., PBS 1×, listed as Maltose): 0.000333 ± 8.3e-05 M⁻¹ s⁻¹"
O=C[C@@H](O)[C@@H](O)[C@H](O)[C@H](O)CO [D-mannose],–,0.18,74 nm,0.87%,2.9 ± 0.2 mM,"First Order Rate Constant k [2, 7]: 0.26 ± 0.06 h⁻¹"
O=C[C@H](O)[C@H](O)[C@H](O)CO [D-ribose],–,0.20,72 nm,0.084%,0.28 ± 0.02 mM,–
OC[C@H]1O[C@@](CO)(O[C@H]2O[C@H](CO)[C@@H](O)[C@H](O)[C@H]2O)[C@@H](O)[C@@H]1O [D-sucrose],0.00186 ± 0.00011 M⁻¹ s⁻¹,0.12,82 nm,0.86%,3.2 ± 0.4 mM,fold faster leakage than maltose ([2]; second order release from SVs): 5.6 fold
"COc1cccc2c1C(=O)c1c(O)c3c(c(O)c1C2=O)C[C@@](O)(C(=O)CO)C[C@@H]3O[C@H]1C[C@H](N)[C@H](O)[C@H](C)O1 [Doxorubicin, doxorubicin]",–,–,–,–,–,"IC50 (MDA-MB-231): 0.06 µg/mL; IC50 (A549): 0.02 µg/mL; release from vesicles after 11 days ([2]; within detection limits, after 11 days): no release; Vesicle PDI ([3]; drug-loaded catanionic SVs): 0.25; Vesicle Radius (nm) ([3]; drug-loaded catanionic SVs): 91 nm; pKa [5]: 8.4; EE (%) [4, 8]: 61%; [Drug], mM (in purified vesicles) [4, 8]: 0.15 ± 0.02 mM; EE (%) ([4]; chemotherapeutic drugs in SDBS-rich SVs, listed as doxorubicin): 60% and 61%"
"Nc1nc2[nH]cc(CCc3ccc(C(=O)N[C@@H](CCC(=O)O)C(=O)O)cc3)c2c(=O)[nH]1 [Pemetrexed, pemetrexed]",–,–,–,–,–,"Half-life t1/2 [2]: 47 ± 4 h; First Order Rate Constant k ([2]; drug release from catanionic SVs, PBS 1×): 0.015 ± 0.001 h⁻¹; Vesicle PDI ([3]; drug-loaded catanionic SVs): 0.17; Vesicle Radius (nm) ([3]; drug-loaded catanionic SVs): 73 nm; EE (%) [4, 8]: 0.80%; [Drug], mM (in purified vesicles) [4, 8]: 0.45 ± 0.09 mM"
COC1OC(CO)C(O)C(O)C1O [α-D-methylglucoside],–,0.19,75 nm,0.17%,0.6 ± 0.2 mM,"First Order Rate Constant k [2, 7]: 3.7 ± 0.5 h⁻¹"
maltotriose,0.00211 ± 0.00022 M⁻¹ s⁻¹,0.13,95 nm,0.65%,2.2 ± 0.2 mM,–

# Reference: patent US20230081679A1, “SURFACTANT VESICLES FOR VACCINE FORMULATION, TARGETED DRUG DELIVERY, AND TRANSFECTION” (University of Maryland, College Park, priority 2021, published 2023)
